Earlier results in US20220257614A1, “USE OF 12-LIPOXYGENASE INHIBITORS IN THE TREATMENT OF COVID-19” (New York Medical College, priority 2021, published 2022).

Tested on: human islets
Conditions: in vitro; background statement

COc1cccc(CNc2ccc(S(=O)(=O)Nc3nc4ccccc4s3)cc2)c1O [ML-355]
protection of human islets from inflammatory injury: protect human islets from inflammatory injury
